Laboratory results published in ChEMBL document CHEMBL4184219, “Binding-Site Compatible Fragment Growing Applied to the Design of β2-Adrenergic Receptor Ligands” (J Med Chem, 2018).

What was measured:
[1] = molecular target: T1, Beta-2 adrenergic receptor (Homo sapiens, UniProt P07550); test: Displacement of [3H]-DHA from Nb80-fused beta2 adrenergic receptor (unknown origin) expressed in Sf9 cell membranes after 2 hrs by microbeta scintillation counting method
[2] = molecular target: T1, Beta-2 adrenergic receptor; test: Displacement of [3H]-DHA from Nb69-fused beta2 adrenergic receptor (unknown origin) expressed in Sf9 cell membranes after 2 hrs by microbeta scintillation counting method
[3] = molecular target: T1, Beta-2 adrenergic receptor; test: Ratio of Ki for Nb69-fused beta2 adrenergic receptor (unknown origin) to Ki for Nb80-fused beta2 adrenergic receptor (unknown origin)

T1 sequence (P07550 whole entry, looked up, the tested form may be a part): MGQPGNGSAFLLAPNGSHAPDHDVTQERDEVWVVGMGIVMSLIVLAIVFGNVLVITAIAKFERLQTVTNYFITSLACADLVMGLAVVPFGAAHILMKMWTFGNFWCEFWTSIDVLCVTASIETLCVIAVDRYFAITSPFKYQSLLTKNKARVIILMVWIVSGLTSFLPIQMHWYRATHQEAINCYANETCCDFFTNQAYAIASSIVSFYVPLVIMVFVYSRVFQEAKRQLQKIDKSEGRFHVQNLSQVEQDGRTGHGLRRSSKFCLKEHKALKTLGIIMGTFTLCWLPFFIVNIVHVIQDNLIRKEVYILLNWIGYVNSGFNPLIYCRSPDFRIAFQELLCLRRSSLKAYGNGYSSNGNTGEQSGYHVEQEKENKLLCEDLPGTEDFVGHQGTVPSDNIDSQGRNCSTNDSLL

Compound	Ki [1]	Ki [2]	Ratio Ki [3]
COc1ccc2c(c1)c(CCNCc1cc(OC(F)(F)F)ccc1F)cn2C	80.4 µM	83.8 µM	1
COc1ccc2c(c1)c(CCNCCCc1ccc(Cl)cc1)cn2C	0.52 µM	3.9 µM	7.5
COc1ccc2c(c1)c(CCN)cn2C	20.4 µM	36.2 µM	1.8
CNCc1cc2ccccc2s1	43.2 µM	373 µM	8.6
CC1(NCc2cc3ccccc3s2)COC1	> 1000 µM	> 1000 µM	> 10
C[C@H](CC(F)(F)F)NCc1ccc(-c2nccs2)cc1	52.3 µM	393 µM	7.5
NCc1ccc(-c2ncccn2)cc1	78.1 µM	> 1000 µM	> 91
CC(NC1CC(c2ccc(F)cc2)C1)c1ccc(Cl)cc1 (centres undefined)	7.89 µM	74 µM	9.4
OCC(NCc1ccc(-c2nccs2)cc1)c1ccco1 (centres undefined)	95.4 µM	> 1000 µM	> 51
COc1ccc2c(c1)c(CCNCCCc1cccc(C(F)(F)F)c1)cn2C	10.4 µM	25 µM	2.4
CC(N)c1ccc(Cl)cc1 (centres undefined)	33.8 µM	> 1000 µM	> 61
CNCc1ccc(-c2nccs2)cc1	33.5 µM	365 µM	11
Cc1ccccc1C(C)NCc1ccc(-c2ncccn2)cc1 (centres undefined)	4.39 µM	268 µM	61
